ChEMBL document CHEMBL6074678, “Selectively Antagonizing the NOD1-Mediated Inflammatory Signaling Pathway Mitigates the Gastric Inflammation Induced by Helicobacter pylori Infection” (J Med Chem, 2024)
Activity calls are given as the source filed them. No cut-off for these calls is given here.

Tests used:
[1] = biological target: T1, Nucleotide-binding oligomerization domain-containing protein 1 (Mus musculus, UniProt Q8BHB0); assay: Antagonist activity at mouse NOD1 expressed in HEK293 cells assessed as decrease in NF-kappaB activation; assay type: cell-based
T1 sequence (Q8BHB0 whole entry): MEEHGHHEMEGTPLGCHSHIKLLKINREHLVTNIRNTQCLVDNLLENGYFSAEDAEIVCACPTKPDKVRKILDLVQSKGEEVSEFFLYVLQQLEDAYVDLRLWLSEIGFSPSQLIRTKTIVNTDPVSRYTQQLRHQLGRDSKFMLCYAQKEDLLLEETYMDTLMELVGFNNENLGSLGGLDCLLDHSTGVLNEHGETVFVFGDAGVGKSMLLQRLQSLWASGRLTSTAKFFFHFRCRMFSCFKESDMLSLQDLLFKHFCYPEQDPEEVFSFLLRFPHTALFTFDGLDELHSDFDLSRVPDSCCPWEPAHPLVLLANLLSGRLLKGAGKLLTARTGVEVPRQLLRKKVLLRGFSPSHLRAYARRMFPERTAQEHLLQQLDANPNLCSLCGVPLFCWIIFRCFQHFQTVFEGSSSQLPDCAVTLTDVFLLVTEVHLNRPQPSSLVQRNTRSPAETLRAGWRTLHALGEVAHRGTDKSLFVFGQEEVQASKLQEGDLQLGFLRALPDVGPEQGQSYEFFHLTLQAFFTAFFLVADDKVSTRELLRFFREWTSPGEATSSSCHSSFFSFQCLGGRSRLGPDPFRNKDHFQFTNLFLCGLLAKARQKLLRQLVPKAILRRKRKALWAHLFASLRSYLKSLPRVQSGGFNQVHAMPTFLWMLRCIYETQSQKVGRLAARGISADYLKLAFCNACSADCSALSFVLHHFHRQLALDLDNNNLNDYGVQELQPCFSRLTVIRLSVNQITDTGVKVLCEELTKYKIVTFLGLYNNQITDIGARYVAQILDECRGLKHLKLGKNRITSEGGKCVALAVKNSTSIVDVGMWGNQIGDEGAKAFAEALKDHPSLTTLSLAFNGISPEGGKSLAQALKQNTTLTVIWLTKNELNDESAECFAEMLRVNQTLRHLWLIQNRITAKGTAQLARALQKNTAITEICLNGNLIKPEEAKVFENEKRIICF

[2] = biological target: T2, Nucleotide-binding oligomerization domain-containing protein 1 (Homo sapiens) (UniProt Q9Y239); assay: Antagonist activity at NOD1 in human THP-1 cells assessed as decrease in phosphorylated JNK level at 0.1 to 1 uM incubated for 1 hr followed by C12-iE-DAP stimulation for 30 mins by Western blot analysis; assay type: cell-based; conditions: filed as antagonist, dose 0.1-1 µM, time 1.5 hrs
T2 sequence (whole entry): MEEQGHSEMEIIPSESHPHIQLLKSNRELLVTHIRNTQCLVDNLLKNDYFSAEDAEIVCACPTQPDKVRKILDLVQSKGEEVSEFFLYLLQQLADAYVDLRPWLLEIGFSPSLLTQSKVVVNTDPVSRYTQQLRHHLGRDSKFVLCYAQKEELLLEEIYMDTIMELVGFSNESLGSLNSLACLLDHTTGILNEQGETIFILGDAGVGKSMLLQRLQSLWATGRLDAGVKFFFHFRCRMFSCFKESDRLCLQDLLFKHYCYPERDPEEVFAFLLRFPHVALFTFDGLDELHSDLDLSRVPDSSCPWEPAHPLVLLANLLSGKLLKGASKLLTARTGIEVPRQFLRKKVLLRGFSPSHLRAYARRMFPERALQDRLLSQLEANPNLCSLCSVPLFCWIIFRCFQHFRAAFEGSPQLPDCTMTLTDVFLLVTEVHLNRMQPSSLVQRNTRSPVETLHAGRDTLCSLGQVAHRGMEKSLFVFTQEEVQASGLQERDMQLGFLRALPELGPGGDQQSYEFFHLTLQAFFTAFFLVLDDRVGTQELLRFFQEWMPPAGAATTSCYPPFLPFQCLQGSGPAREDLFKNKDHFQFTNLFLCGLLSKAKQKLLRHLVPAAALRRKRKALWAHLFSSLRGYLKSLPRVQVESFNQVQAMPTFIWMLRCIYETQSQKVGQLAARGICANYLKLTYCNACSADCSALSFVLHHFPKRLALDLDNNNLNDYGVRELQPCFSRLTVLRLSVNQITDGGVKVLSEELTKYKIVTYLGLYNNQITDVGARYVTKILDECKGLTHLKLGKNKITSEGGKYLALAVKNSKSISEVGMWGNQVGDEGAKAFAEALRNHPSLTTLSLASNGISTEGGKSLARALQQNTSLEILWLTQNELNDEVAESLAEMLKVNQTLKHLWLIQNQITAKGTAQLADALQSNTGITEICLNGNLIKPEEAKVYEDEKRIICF

[3] = biological target: T3, Nucleotide-binding oligomerization domain-containing protein 1 (Mus musculus) (UniProt Q8BHB0); assay: Antagonist activity at NOD1 in mouse BMDM cells assessed as decrease in phosphorylated p65 level at 0.1 to 1 uM incubated for 1 hr followed by C12-iE-DAP stimulation for 30 mins by Western blot analysis; assay type: cell-based; conditions: filed as antagonist, dose 0.1-1 µM, time 1.5 hrs
T3 sequence (whole entry): T1 sequence (Q8BHB0 whole entry)

[4] = biological target: T3, Nucleotide-binding oligomerization domain-containing protein 1 (Mus musculus); assay: Antagonist activity at NOD1 in mouse BMDM cells assessed as decrease in phosphorylated p38 level at 0.1 to 1 uM incubated for 1 hr followed by C12-iE-DAP stimulation for 30 mins by Western blot analysis; assay type: cell-based; conditions: filed as antagonist, dose 0.1-1 µM, time 1.5 hrs
[5] = biological target: T2, Nucleotide-binding oligomerization domain-containing protein 1 (Homo sapiens); assay: Thermal stabilization of NOD1 (unknown origin) transfected in HEK293 cells at 0.1 to 5 uM incubated for 1 hr heated at higher temperature by CETSA; assay type: cell-based; conditions: dose 0.1-5 µM
[6] = Anti-inflammatory activity in mouse BMDM cells assessed as decrease in IL-6 mRNA level at 0.1 uM pretreated for 1 hr followed by C12-iE-DAP stimulation for 2 hrs by RT-qPCR analysis relative to control; assay type: functional; parameters: scale not given: the % may be the effect or the level left; conditions: time 3 hrs
[7] = test system: THP-1; assay: Anti-inflammatory activity in human THP-1 cells assessed as decrease in IL-6 mRNA level at 5 uM pretreated for 1 hr followed by infection with Helicobacter pylori for 2 hrs by RT-qPCR analysis relative to control; assay type: functional; parameters: scale not given: the % may be the effect or the level left; conditions: time 3 hrs
[8] = test system: BMDM; assay: Anti-inflammatory activity in mouse BMDM cells assessed as decrease in TNF-alpha mRNA level at 1 to 5 uM pretreated for 1 hr followed by infection with Helicobacter pylori for 2 hrs by RT-qPCR analysis; assay type: functional, cell-based; conditions: dose 1-5 µM, time 3.0 hrs
[9] = Cmax in C57BL/6 mouse at 20 mg/kg, po by LC-MS/MS analysis; assay type: ADME, organism-based; conditions: in vivo
[10] = MRT (infinity) in C57BL/6 mouse at 20 mg/kg, po by LC-MS/MS analysis; assay type: ADME, organism-based; conditions: in vivo
[11] = test system: Mus musculus; assay: Anti-inflammatory activity in C57BL/6 mouse assessed as inhibition of serum keratinocyte chemoattractant level pretreated orally with compound for 15 mins followed by C12-iE-DAP administration measured after 2 hrs by ELISA; assay type: functional, organism-based; conditions: dose 12.5-50 mg/kg, route po, time 135.0 min
[12] = test system: Mus musculus; assay: Anti-inflammatory activity in C57BL/6 mouse model of Helicobacter pylori-induced gastric inflammation assessed as reduction in IL-6 level in gastric tissue at 50 mg/kg, po pretreated with compound upto 24 hrs followed by infection of Helicobacter pylori measured upto 72 hrs; assay type: functional, organism-based; conditions: time <= 96.0 hrs

**Q.** For `CS(=O)(=O)c1ccc2nc(Cl)n(-c3ccc(Cl)c(NS(=O)(=O)c4c(F)cccc4F)c3)c(=O)c2c1`, which IC50 [1] is on record?
**A.** The IC50 was 32 nM.

**Q.** And the inhibition [2]?
**A.** The inhibition was “Active”.

**Q.** What about the inhibition [3] of the same compound?
**A.** Its inhibition is “Active”.

**Q.** What about the inhibition [4] of the same compound?
**A.** The inhibition was “Active”.

**Q.** And the Activity [5]?
**A.** Its Activity is “Active”.

**Q.** What about the Activity [6] of the same compound?
**A.** Its Activity is roughly 100%.

**Q.** What about the Activity [7] of the same compound?
**A.** Its Activity is 100%.

**Q.** And the Activity [8]?
**A.** The Activity was “Active”.

**Q.** What about the Cmax [9] of the same compound?
**A.** The Cmax was 44.6 ng/mL.

**Q.** What about the MRT inf [10] of the same compound?
**A.** The MRT inf was 3.22 h.

**Q.** And the inhibition [11]?
**A.** The inhibition was “Dose-dependent-effect”.

**Q.** What about the Activity [12] of the same compound?
**A.** Its Activity is “Active”.
